One data set deals with bronchoconstriction. Briefly: Einthoven assay, duration of bronchoprotection. The following applies: guinea pigs, 10 μg/mL.
The nature of data set [1]: Differential scanning calorimetry, thermal stability. It is filed as physicochemical. The following applies: DSC, FIG. 5. On the procedure: Differential scanning calorimetry (DSC) was performed using a TA Instruments Model Q-100 module with a Thermal Analyst controller. Data were collected and analyzed using TA Instruments Thermal Solutions software. A sample of about 1 mg was accurately weighed into an aluminum pan with lid. The sample was evaluated using a linear heating ramp of 5° C./min from ambient temperature to approximately 300° C. The DSC cell was purged with dry nitrogen during use. Representative DSC traces for samples of Form I, Form II and Form III of crystalline biphenyl-2-ylcarbamic acid 1-[2-(4-{[(R)-2-(3-formylamino-4-hydroxyphenyl)-2-hydroxyethylamino]methyl}-2,5-dimethylphenylcarbamoyl)ethyl]piperidin-4-yl ester are shown in FIGS. 4, 5 and 6, respectively.
In general terms: DSC measures the heat that a sample takes up or gives off during a temperature scan.

Data set [2] is described as follows: Dynamic moisture sorption (DMS) assessment. It is filed as physicochemical. The procedure:
A dynamic moisture sorption (DMS) assessment (also known as a moisture sorption-desorption profile) was performed for a hand ground samples of Form I, Form II and Form III of crystalline biphenyl-2-ylcarbamic acid 1-[2-(4-{[(R)-2-(3-formylamino-4-hydroxyphenyl)-2-hydroxyethylamino]methyl}-2,5-dimethylphenylcarbamoyl)-ethyl]piperidin-4-yl ester using a VTI atmospheric microbalance, SGA-100 system (VTI Corp., Hialeah, Fla. 33016). A sample size of approximately 10 mg was used and the humidity was set at the ambient value at the start of the analysis. A typical DMS analysis consisted of three scans: ambient to 2% relative humidity (RH), 2% RH to 90% RH, 90% RH to 5% RH at a scan rate of 5% RH/step. The mass was measured every two minutes and the RH was changed to the next value (±5% RH) when the mass of the sample was stable to within 0.01% for 5 consecutive points. Representative DMS traces for Form I, Form II and Form III are shown in FIGS. 10, 11 and 12, respectively.

Molecules are shown by their SMILES. Where only a bound is given, the exact number is not on record here.

Experimental for bronchoconstriction: The magnitude of bronchoprotection at different time-points after inhalation of the test compound was used to estimate the pharmacodynamic half-life (PD T1/2). PD T1/2 was determined using a non-linear regression fit using a one-phase exponential decay equation (GraphPad Prism, Version 4.00): Y=Span*exp(−K*X)+Plateau; Starts at Span+Plateau and decays to Plateau with a rate constant K. The PD T1/2=0.69/K. Plateau was constrained to 0.

With `C[N+]1(C)[C@@H]2C[C@@H](OC(=O)C(O)(c3cccs3)c3cccs3)C[C@H]1[C@@H]1O[C@@H]12` [tiotropium], the “duration of significant bronchoprotection” value in the data set on bronchoconstriction was “greater than 72 hours”.
For `Cc1cc(NC(=O)CCN2CCC(OC(=O)Nc3ccccc3-c3ccccc3)CC2)c(C)cc1CNC[C@H](O)c1ccc(O)c(NC=O)c1` [Form II, Biphenyl-2-ylcarbamic acid 1-[2-(4-{[(R)-2-(3-Formylamino-4-hydroxyphenyl)-2-hydroxyethylamino]methyl}-2,5-dimethylphenylcarbamoyl)ethyl]piperidin-4-yl Ester], in data set [1], the thermal stability entry is reported as “excellent thermal stability”. Besides, the hygroscopicity in data set [2] (DMS, 2% RH to 90% RH, reversible sorption/desorption profile) is recorded as under 5%. The weight gain entry is recorded as “about 0.3 weight %” in data set [2] (humidity range of 40% RH to 75% RH, DMS trace FIG. 11) and “less than 0.5%” in data set [2] (humidity range of 40% relative humidity to 75% relative humidity). Also, the deliquescence entry in data set [2] (moisture sorption/desorption, exposure to atmospheric moisture) is given as “not deliquescent”.

The record behind these values is patent publication US7880010B2, “Crystalline forms of a dimethylphenyl compound” (Theravance, Inc., priority 2006, dated 2011).
